The subject of series [1] is Escherichia coli ATCC 8739. Description: Microdilution test, control bacterial strain Escherichia coli (growth abatement, OD600). Type of series: cell-based. How it is done: (§1) The test aims to assess the in vitro susceptibility of the yeast Kluyveromyces marxianus to the antibiotic rifaximin. The test is performed by assaying 8 scalar dilutions of rifaximin in liquid culture medium (microdilution). Bacterial strains are tested in parallel as controls. Rifaximin is a synthetic molecule derived from rifamycin. The powder is characterized by poor solubility in water and tendency to self-aggregate in the liquid phase. A preliminary step is then performed to set the solubility conditions of rifaximin at the highest concentration used in the test (0.5 mg/ml). The following strains were used • Kluyveromyces marxianus B099 • Bifidobacterium longum […] • Escherichia coli ATCC 8739 The Escherichia coli bacterial strain was revitalized from a reference stock suspension stored at -80° C. After thawing, working cultures were set up by growing the strain in suitable plate medium under the optimal growth conditions. The other strains were obtained after plating on agarized culture medium of the specific matrices and subsequent isolation of pure colonies. In Table 1 the strains and the growth and inoculation conditions are set forth. [table] In the microdilution test, broth-cultures of the test microorganisms are set up in triplicates in the presence of 8 different concentrations of rifaximin, which are selected in agreement with the client, and 1 concentration of rifamycin corresponding to the highest concentration selected for rifaximin. 100 μl of a solution, 2 times more concentrated (2×) than the desired concentration, and 100 μl of the microbial suspension at a titer given in Table 2.2.1, were added to each well of the 96-wells plates. The 8 concentrations of rifaximin are produced from the 50 mg/ml solution in DMSO in TSB and in parallel in SDB. The final test concentrations are as follows: 0.5 mg/ml-0.25 mg/ml-0.125 mg/ml-0.063 mg/ml-0.031 mg/ml-0.015 mg/ml-0.0078 mg/ml-0.0039 mg/ml. Following the absorbance measurement on the spectrophotometer, the mean of the data recorded for each concentration and the mean of the data from the controls in DMSO or sterile water are calculated. To estimate the microbial growth and determine MIC from the mean data obtained (in the test and controls), the blank data are subtracted and then the control data and the test data are compared with each other to assess any growth or growth inhibition of each strain tested. The growth inhibition is calculated as a percentage by the following formula: [formula] • wherein • A: Mean OD of control • B: Mean OD of the sample at the concentration tested • MIC is considered the lowest concentration of product that can give at least 90% growth inhibition. A solution of rifamycin is prepared, at the 50 mg/ml concentration in sterile water, which is then diluted in tryptic soy broth (TSB) and in parallel in Sabouraud dextrose broth (SDB) until the 0.5 mg/ml concentration used in the test is obtained. The plates are incubated at the optimal temperatures and growth conditions of the various strains tested as described in Example 5. After the days of incubation have passed, the absorbance at 600 nm (OD600) is measured by spectrophotometer. The mean values after subtracting the blank are used to estimate microbial growth and determine MIC.
For orientation: Broth dilution looks for growth in wells or tubes with falling amounts of substance.

The subject of series [2] is Kluyveromyces marxianus B099. In words: Microdilution test, susceptibility of Kluyveromyces marxianus to the antibiotic (growth abatement, OD600). Format: cell-based. How it is done:
as §1

Series [3] concerns Bifidobacterium longum W11. In words: Microdilution test, control bacterial strain Bifidobacterium longum (growth abatement, OD600). Format: cell-based. The following applies: for Abatement of strain growth: Bifidobacterium longum W11. The method, then:
as §1

The nature of series [4]: Preliminary solubilization test in DMSO. Type of series: physicochemical. The following applies: starting stock solution. The method, then:
The test aims to assess the in vitro susceptibility of the yeast Kluyveromyces marxianus to the antibiotic rifaximin. The test is performed by assaying 8 scalar dilutions of rifaximin in liquid culture medium (microdilution). Bacterial strains are tested in parallel as controls. Rifaximin is a synthetic molecule derived from rifamycin. The powder is characterized by poor solubility in water and tendency to self-aggregate in the liquid phase. A preliminary step is then performed to set the solubility conditions of rifaximin at the highest concentration used in the test (0.5 mg/ml). The exploratory step is performed to set the solubilization conditions of rifaximin and the culture conditions of the microbial strains. Given the poor solubility of rifaximin powder in water and the tendency for self-aggregation in the liquid phase, a solubilization test in DMSO (dimethyl sulfoxide) is performed. […] The first concentration used in the test and the subsequent dilutions (set up in Tryptic soy broth-TSB or Sabouraud dextrose broth-SDB, base-2 serial dilutions) were defined in agreement with the client, based on literature data. The strains were expanded first in liquid medium and then in agarized medium, as described in Table 2.2.1, obtaining growth results that confirmed the use of these media and conditions for the microdilution test as well.

[5] abbreviates: rifamycin 0.5 mg/ml (stock in sterile water).

For `CO[C@H]1/C=C/O[C@@]2(C)Oc3c(C)c(O)c4c(O)c(cc(O)c4c3C2=O)NC(=O)/C(C)=C\C=C\[C@H](C)[C@H](O)[C@@H](C)[C@@H](O)[C@@H](C)[C@H](OC(C)=O)[C@@H]1C` [rifamycin], the “Growth inhibition, conclusion in words” value in series [1], in series [2] and in series [3] (Bifidobacterium longum) was “inhibits the growth” in each case. Further, the “Abatement of strain growth” value in series [1] (setting [5]) turned out to be 79.7%; in series [2] (setting [5]) it was 88.9%; in series [3] (setting [5]) it was 87.5%.
Consider `CO[C@H]1/C=C/O[C@@]2(C)Oc3c(C)c(O)c4c(O)c(c5c(nc6cc(C)ccn65)c4c3C2=O)NC(=O)/C(C)=C\C=C\[C@H](C)[C@H](O)[C@@H](C)[C@@H](O)[C@@H](C)[C@H](OC(C)=O)[C@@H]1C` [rifaximin], for which the “Growth inhibition, conclusion in words” value in series [1] is listed as “inhibits the growth”; in series [2] it was “does not inhibit the growth”; in series [3] (Bifidobacterium longum) it was “inhibits the growth”. For the same molecule, the “Growth inhibition” value is listed as ~99% in series [1] (at ≥0.031 mg/ml concentrations) and > 99.9% in series [3] (Bifidobacterium longum, virtually all concentrations except 0.0039 mg/ml). In addition, the “Abatement of strain growth” value was 45.7% in series [1] (rifaximin 0.0039 mg/ml); 54.9% in series [1] (rifaximin 0.0078 mg/ml); 94.5% in series [1] (rifaximin 0.015 mg/ml); >99.9% in series [1] (rifaximin 0.031 mg/ml); 99.6% in series [1] (rifaximin 0.063 mg/ml); >99.9% in series [1] (rifaximin 0.125 mg/ml). For the same molecule, the “Abatement of strain growth” value is 98.5% in series [1] (rifaximin 0.25 mg/ml); 98.1% in series [1] (rifaximin 0.5 mg/ml); 1.5% in series [2] (rifaximin 0.0039 mg/ml); −1.7% in series [2] (rifaximin 0.0078 mg/ml); −3.3% in series [2] (rifaximin 0.015 mg/ml); −2.1% in series [2] (rifaximin 0.031 mg/ml). Further, the “Abatement of strain growth” value in series [2] (rifaximin 0.063 mg/ml) was −2.6%; in series [2] (rifaximin 0.125 mg/ml), −3.5%; in series [2] (rifaximin 0.25 mg/ml), −1.2%; in series [2] (rifaximin 0.5 mg/ml), −4.7%; in series [3] (rifaximin 0.0039 mg/ml) it was 45.5%; in series [3] (rifaximin 0.0078 mg/ml) it was >99.9%. Further, the “Abatement of strain growth” value in series [3] (rifaximin 0.015 mg/ml) is on record as >99.9%; in series [3] (rifaximin 0.031 mg/ml), >99.9%; in series [3] (rifaximin 0.063 mg/ml) it was >99.9%; in series [3] (rifaximin 0.125 mg/ml), >99.9%; in series [3] (rifaximin 0.25 mg/ml) it was 98.7%; in series [3] (rifaximin 0.5 mg/ml), >99.9%. Further, the “Highest concentration in DMSO with no visible precipitates and clear” value in series [4] turned out to be 50 mg/mL.

(Values after patent US20260183356A1, “NOVEL COMBINATION BASED ON RIFAXIMIN AND PROBIOTIC YEASTS, COMPOSITIONS CONTAINING IT AND THEIR USE IN THERAPY” (NYUMA PHARMA SRL, priority 2022, published 2026).)
